Assay results from ChEMBL document CHEMBL4017447, “Indenocinnoline derivatives as G-quadruplex binders, topoisomerase IIα inhibitors and antiproliferative agents” (Bioorg Med Chem, 2017).
pIC50: −log10 of the molar value. Active and inactive are the calls of the source. No cut-off for these calls is given here.

Assays:
Homo sapiens [1] = organism: Homo sapiens; experiment: Binding affinity to 5'-dabcyl/3'-fluorescein labeled human telomeric sequence G-quadruplex DNA assessed as change in melting temperature at 10 uM by fluorescence assay
Escherichia coli [2] = experiment: Binding affinity to Escherichia coli supercoiled pBR322 DNA assessed as DNA intercalation by measuring DNA unwinding up to 100 uM measured after 1 hr by ethidium bromide staining based agarose gel electrophoresis
[3] = Binding affinity to 5'-dabcyl/3'-fluorescein labeled cKit G-quadruplex DNA (unknown origin) assessed as change in melting temperature at 10 uM by fluorescence assay
[4] = molecular target: DNA topoisomerase 2-alpha (Homo sapiens, UniProt P11388); experiment: Inhibition of human topoisomerase 2alpha-mediated kinetoplast DNA decatenation after 60 mins by ethidium bromide staining based agarose gel electrophoresis
Sequence of DNA topoisomerase 2-alpha (P11388 whole entry): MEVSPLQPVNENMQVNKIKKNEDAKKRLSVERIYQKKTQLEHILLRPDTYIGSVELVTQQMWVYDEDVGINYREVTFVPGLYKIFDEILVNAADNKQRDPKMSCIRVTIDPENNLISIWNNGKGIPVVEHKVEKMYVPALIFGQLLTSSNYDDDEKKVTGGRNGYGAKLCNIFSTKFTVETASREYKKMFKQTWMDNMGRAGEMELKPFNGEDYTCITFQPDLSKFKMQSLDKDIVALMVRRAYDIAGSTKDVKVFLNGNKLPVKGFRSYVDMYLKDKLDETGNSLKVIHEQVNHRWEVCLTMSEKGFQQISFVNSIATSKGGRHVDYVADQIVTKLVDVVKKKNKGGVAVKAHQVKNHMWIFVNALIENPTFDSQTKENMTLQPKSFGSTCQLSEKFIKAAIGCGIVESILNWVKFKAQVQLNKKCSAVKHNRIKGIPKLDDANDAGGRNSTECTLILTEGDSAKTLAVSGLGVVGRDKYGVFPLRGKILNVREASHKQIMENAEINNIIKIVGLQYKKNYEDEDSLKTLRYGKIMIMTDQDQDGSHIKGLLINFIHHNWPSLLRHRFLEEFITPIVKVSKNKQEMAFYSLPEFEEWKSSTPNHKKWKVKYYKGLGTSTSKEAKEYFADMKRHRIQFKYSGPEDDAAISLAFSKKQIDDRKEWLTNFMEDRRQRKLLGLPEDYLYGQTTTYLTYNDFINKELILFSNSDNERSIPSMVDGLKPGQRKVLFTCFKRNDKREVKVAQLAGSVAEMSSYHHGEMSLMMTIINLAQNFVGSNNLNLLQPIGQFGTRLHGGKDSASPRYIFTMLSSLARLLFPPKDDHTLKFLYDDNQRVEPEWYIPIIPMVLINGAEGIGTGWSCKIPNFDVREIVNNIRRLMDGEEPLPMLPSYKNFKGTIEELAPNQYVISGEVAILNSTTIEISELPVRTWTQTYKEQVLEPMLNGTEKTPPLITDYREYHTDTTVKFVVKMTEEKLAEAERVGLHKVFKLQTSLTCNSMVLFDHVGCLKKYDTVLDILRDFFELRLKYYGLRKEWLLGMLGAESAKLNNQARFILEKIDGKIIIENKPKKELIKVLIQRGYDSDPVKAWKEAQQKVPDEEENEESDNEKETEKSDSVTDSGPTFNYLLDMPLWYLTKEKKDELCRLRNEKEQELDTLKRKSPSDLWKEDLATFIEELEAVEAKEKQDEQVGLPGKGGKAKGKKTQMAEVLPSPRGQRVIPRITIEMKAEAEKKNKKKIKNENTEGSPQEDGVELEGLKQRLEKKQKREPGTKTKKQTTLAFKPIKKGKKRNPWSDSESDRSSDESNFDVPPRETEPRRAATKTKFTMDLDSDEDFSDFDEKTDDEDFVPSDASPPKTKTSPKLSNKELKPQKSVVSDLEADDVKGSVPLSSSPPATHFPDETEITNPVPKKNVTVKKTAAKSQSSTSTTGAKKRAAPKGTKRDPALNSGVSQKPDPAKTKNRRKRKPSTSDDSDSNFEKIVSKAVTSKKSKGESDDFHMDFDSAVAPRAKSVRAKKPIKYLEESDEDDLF

MCF7 [5] = experiment: Cytotoxicity against human MCF7 cells after 72 hrs by MTT assay; assay type: functional, cell-based; settings: MCF7, 72 h
[6] = Binding affinity to 5'-dabcyl/3'-fluorescein labeled double stranded DNA (unknown origin) assessed as change in melting temperature at 10 uM by fluorescence assay
HeLa [7] = experiment: Cytotoxicity against human HeLa cells after 72 hrs by MTT assay; assay type: functional, cell-based
[8] = Inhibition of Escherichia coli DNA topoisomerase 4 decatenation activity using kinetoplast DNA as substrate after 60 mins by ethidium bromide staining based agarose gel electrophoresis
[9] = Binding affinity to cKit G-quadruplex DNA (unknown origin) assessed as compound concentration required for 30% displacement of thiazole orange from cKit G-quadruplex DNA by fluorescent intercalator displacement assay
Homo sapiens [10] = organism: Homo sapiens; experiment: Binding affinity to human telomeric 22 G-quadruplex DNA assessed as compound concentration required for 30% displacement of thiazole orange from telomeric 22 G-quadruplex DNA by fluorescent intercalator displacement assay
Escherichia coli [11] = experiment: Binding affinity to Escherichia coli supercoiled pBR322 DNA assessed as DNA intercalation by measuring DNA unwinding at 100 uM measured after 1 hr by ethidium bromide staining based agarose gel electrophoresis
[12] = Binding affinity to double stranded DNA (unknown origin) assessed as compound concentration required for 30% displacement of thiazole orange from double stranded DNA by fluorescent intercalator displacement assay
MCF7 [13] = experiment: Potency index, ratio of ametantrone IC50 to compound IC50 for human MCF7 cells; assay type: functional
HeLa [14] = experiment: Potency index, ratio of ametantrone IC50 to compound IC50 for human HeLa cells; assay type: functional
Escherichia coli [15] = experiment: Binding affinity to Escherichia coli supercoiled pBR322 DNA assessed as DNA intercalation by measuring DNA unwinding at 0.1 to 10 uM measured after 1 hr by ethidium bromide staining based agarose gel electrophoresis
Escherichia coli [16] = experiment: Inhibition of Escherichia coli DNA topoisomerase 4 decatenation activity up to 100 uM using kinetoplast DNA as substrate after 60 mins by ethidium bromide staining based agarose gel electrophoresis
Escherichia coli [17] = experiment: Binding affinity to Escherichia coli supercoiled pBR322 DNA assessed as DNA intercalation by measuring DNA unwinding at 10 uM measured after 1 hr by ethidium bromide staining based agarose gel electrophoresis

| Structure (SMILES) | ΔTm (Homo sapiens [1]) | ΔTm [3] | pIC50 [4] | ΔTm [6] | pIC50 [8] | Activity [9] | Activity (Homo sapiens [10]) | Activity [12] | pIC50 (MCF7 [5]) | pIC50 (HeLa [7]) | also measured |
| --- | --- | --- | --- | --- | --- | --- | --- | --- | --- | --- | --- |
| CN(C)CCCOc1ccc2c(ccc3c4c(nnc32)-c2ccccc2C4=O)c1 | 16.1 °C | 19.2 °C | 4.28 | 0.85 °C | < 4.00 | 1.5 µM | 4.75 µM | 7.81 µM | 5.17 | 5.52 | Activity (Escherichia coli [11]): Active |
| CN(C)CCCn1c(=O)c2nc3ccccc3nc2c2ccccc21 | – | – | – | – | – | 3.57 µM | inactive | 10.9 µM | – | – | – |
| CN(C)CCCOc1ccc2ccc3c4c(nnc3c2c1)-c1ccccc1C4=O | 20.8 °C | 23.1 °C | 4.54 | 1.96 °C | < 4.00 | 0.95 µM | 2.43 µM | 4.06 µM | 5.01 | 5.55 | Activity (Escherichia coli [11]): Active |
| O=C(NCCCCN1CCCCC1)c1ccc2nnc3c(c2c1)C(=O)c1ccccc1-3 | 6.63 °C | 5.42 °C | – | 0.9 °C | – | – | – | – | – | – | – |
| COc1cccc2c1C(=O)c1c(O)c3c(c(O)c1C2=O)C[C@@](O)(C(=O)CO)C[C@@H]3O[C@H]1C[C@H](N)[C@H](O)[C@H](C)O1 | – | – | – | – | – | – | – | – | – | – | Activity (Escherichia coli [15]): Active |
| O=C(NCCCCN1CCOCC1)c1ccc2nnc3c(c2c1)C(=O)c1ccccc1-3 | 4.82 °C | 4.37 °C | – | – | – | – | – | – | – | – | deltaTm [6]: inactive |
| O=C1c2ccccc2C(=O)c2c(NCCNCCO)ccc(NCCNCCO)c21 [AMETANTRONE] | – | – | – | – | – | – | – | – | 6.29 | 6.05 | – |
| COc1ccc2cc3[n+](cc2c1OC)CCc1cc2c(cc1-3)OCO2 | 9.68 °C | 10.3 °C | – | 0.34 °C | – | > 10 µM | > 10 µM | – | – | – | – |
| CO[C@@H]1[C@@H](OC(N)=O)[C@@H](O)[C@H](Oc2ccc3c(O)c(NC(=O)c4ccc(O)c(CC=C(C)C)c4)c(=O)oc3c2C)OC1(C)C [NOVOBIOCIN] | – | – | – | – | 4.20 | – | – | – | – | – | – |

Continued, in another order:

| ΔTm (Homo sapiens [1]) | ΔTm [3] | pIC50 [4] | ΔTm [6] | pIC50 [8] | Activity [9] | Activity (Homo sapiens [10]) | Activity [12] | Structure (SMILES) | pIC50 (MCF7 [5]) | pIC50 (HeLa [7]) | also measured |
| --- | --- | --- | --- | --- | --- | --- | --- | --- | --- | --- | --- |
| 5.95 °C | 6.8 °C | 4.87 | 1.19 °C | < 4.00 | – | – | – | CN(C)CCNC(=O)c1ccc2nnc3c(c2c1)C(=O)c1ccccc1-3 | 6.55 | 6.46 | Activity (Escherichia coli [2]): inactive |
| 9.35 °C | 12.4 °C | 5.15 | 2.7 °C | < 4.00 | – | – | – | CN(C)CCCCNC(=O)c1ccc2nnc3c(c2c1)C(=O)c1ccccc1-3 | 7.07 | 7.35 | Ratio IC50 (MCF7 [13]): 6; Activity (Escherichia coli [2]): inactive; Ratio IC50 (HeLa [14]): 20 |
| 3.77 °C | 3.01 °C | – | 0.53 °C | – | – | – | – | CCN(CC)CCCCNC(=O)c1ccc2nnc3c(c2c1)C(=O)c1ccccc1-3 | – | – | – |
| 7.91 °C | 8.5 °C | 5.31 | 1.95 °C | < 4.00 | – | – | – | CN(C)CCCNC(=O)c1ccc2nnc3c(c2c1)C(=O)c1ccccc1-3 | 6.77 | 6.57 | Activity (Escherichia coli [2]): inactive |
| 25.6 °C | 28 °C | 5.26 | 5.27 °C | – | 0.47 µM | 0.52 µM | 1.36 µM | CN(C)CCOc1ccc2ccc3c4c(nnc3c2c1)-c1ccccc1C4=O | 5.43 | 5.22 | inhibition (Escherichia coli [16]): inactive; Activity (Escherichia coli [17]): Active |
| – | – | < 4.00 | – | < 4.00 | – | – | – | O=C1c2ccccc2-c2nnc3ccccc3c21 | 6.09 | 6.24 | Activity (Escherichia coli [2]): inactive |
| 5.69 °C | 9.18 °C | < 4.00 | – | < 4.00 | 2.08 µM | inactive | 16 µM | CN(C)CCOc1ccc2c(ccc3c4c(nnc32)-c2ccccc2C4=O)c1 | < 4.00 | < 4.00 | deltaTm [6]: inactive; Activity (Escherichia coli [11]): Active |
